The values below come from ChEMBL document CHEMBL5653631, “A Potent and Selective ULK1 Inhibitor Suppresses Autophagy and Sensitizes Cancer Cells to Nutrient Stress” (iScience, 2018).

Assay [1] concerns the target T1, Ephrin type-A receptor 3 (Homo sapiens) (UniProt P29320).
T1 sequence (whole entry): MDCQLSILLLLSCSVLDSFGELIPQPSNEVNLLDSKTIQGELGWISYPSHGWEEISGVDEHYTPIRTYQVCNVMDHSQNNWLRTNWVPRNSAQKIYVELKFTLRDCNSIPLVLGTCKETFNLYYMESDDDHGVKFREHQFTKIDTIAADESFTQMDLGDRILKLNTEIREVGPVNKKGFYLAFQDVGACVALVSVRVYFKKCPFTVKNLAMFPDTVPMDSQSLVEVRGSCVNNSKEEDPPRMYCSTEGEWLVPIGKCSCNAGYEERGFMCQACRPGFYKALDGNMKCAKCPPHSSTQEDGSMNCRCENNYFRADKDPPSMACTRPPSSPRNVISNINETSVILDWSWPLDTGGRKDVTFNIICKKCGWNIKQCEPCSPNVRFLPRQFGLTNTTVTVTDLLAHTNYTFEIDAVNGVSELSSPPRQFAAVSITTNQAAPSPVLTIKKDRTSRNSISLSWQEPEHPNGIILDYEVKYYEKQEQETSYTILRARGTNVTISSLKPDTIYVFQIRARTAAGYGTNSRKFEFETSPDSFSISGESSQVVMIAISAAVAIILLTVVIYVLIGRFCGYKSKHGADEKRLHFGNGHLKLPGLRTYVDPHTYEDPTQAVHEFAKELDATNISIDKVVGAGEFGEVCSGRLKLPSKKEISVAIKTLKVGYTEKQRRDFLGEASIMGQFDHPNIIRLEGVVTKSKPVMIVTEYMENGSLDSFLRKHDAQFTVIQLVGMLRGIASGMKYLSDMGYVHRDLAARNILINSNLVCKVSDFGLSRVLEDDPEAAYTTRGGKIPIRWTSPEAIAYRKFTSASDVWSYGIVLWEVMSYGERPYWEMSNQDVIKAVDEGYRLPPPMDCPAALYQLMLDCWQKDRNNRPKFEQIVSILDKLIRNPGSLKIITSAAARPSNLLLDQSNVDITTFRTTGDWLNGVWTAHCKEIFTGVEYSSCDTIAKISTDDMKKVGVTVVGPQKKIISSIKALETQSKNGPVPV
The experiment in a line: Inhibition of human recombinant EphA3 at 40 nM in presence of ATP by radiometric assay relative to control.

For assay [2], the target named is T2, Tyrosine-protein kinase JAK3 (Homo sapiens) (UniProt P52333).
T2 sequence (whole entry): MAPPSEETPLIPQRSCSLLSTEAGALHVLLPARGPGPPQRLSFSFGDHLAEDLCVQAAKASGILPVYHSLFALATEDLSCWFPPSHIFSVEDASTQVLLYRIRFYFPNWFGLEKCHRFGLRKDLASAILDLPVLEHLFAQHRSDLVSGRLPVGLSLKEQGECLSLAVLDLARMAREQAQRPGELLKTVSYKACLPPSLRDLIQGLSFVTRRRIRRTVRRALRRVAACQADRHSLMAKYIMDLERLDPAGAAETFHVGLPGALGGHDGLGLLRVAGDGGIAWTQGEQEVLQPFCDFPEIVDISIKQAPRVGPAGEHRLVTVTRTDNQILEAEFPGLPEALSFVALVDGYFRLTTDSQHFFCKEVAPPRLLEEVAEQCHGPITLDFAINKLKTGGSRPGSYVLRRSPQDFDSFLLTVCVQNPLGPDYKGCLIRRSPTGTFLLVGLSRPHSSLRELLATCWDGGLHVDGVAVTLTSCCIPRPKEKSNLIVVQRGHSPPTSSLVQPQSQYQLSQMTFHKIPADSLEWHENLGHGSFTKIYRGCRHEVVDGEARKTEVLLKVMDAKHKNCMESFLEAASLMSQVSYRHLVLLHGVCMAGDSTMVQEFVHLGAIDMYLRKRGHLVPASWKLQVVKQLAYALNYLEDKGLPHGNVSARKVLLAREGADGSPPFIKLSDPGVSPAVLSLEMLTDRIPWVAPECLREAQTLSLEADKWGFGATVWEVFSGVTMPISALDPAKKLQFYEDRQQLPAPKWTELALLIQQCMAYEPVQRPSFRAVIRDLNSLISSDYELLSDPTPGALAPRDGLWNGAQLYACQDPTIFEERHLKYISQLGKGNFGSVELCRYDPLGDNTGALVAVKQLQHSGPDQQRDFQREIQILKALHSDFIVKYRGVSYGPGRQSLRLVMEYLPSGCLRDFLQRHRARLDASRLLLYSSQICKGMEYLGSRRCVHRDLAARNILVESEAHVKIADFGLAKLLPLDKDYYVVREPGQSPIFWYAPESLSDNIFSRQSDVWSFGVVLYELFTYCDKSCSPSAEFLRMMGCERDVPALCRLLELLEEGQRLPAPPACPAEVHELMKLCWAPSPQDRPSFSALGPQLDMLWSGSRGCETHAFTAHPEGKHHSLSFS
The experiment in a line: Inhibition of human recombinant JAK3 at 40 nM related to control ULK1.

For assay [3], the target named is Serine/threonine-protein kinase D2 (Homo sapiens) (UniProt Q9BZL6). The experiment in a line: Inhibition of human recombinant PKD2 at 500 nM in presence of ATP by radiometric assay relative to control.
Sequence of Serine/threonine-protein kinase D2 (Homo sapiens) (Q9BZL6 whole entry, looked up): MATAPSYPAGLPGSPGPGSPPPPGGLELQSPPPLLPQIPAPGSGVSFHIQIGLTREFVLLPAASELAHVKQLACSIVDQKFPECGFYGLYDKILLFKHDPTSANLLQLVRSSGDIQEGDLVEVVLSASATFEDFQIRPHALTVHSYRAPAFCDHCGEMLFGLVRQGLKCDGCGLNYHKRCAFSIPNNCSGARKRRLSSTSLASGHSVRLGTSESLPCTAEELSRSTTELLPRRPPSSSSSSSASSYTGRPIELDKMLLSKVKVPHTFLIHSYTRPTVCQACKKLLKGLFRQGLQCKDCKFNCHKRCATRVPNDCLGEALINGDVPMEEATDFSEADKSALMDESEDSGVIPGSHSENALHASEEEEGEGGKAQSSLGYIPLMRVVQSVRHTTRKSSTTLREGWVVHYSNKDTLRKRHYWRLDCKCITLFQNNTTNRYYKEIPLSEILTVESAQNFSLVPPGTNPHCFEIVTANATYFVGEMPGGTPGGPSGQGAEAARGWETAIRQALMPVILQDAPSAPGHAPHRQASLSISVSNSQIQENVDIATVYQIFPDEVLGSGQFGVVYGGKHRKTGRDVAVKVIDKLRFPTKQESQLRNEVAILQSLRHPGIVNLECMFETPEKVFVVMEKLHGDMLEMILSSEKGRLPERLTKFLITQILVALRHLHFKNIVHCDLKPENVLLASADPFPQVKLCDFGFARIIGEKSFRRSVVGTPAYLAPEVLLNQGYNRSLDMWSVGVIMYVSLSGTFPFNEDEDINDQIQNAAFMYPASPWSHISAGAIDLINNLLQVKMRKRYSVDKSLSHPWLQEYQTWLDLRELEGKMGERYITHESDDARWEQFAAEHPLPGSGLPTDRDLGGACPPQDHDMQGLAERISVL
In assay [4] the target is T3, Dual specificity protein kinase TTK (Homo sapiens) (UniProt P33981).
T3 sequence (whole entry): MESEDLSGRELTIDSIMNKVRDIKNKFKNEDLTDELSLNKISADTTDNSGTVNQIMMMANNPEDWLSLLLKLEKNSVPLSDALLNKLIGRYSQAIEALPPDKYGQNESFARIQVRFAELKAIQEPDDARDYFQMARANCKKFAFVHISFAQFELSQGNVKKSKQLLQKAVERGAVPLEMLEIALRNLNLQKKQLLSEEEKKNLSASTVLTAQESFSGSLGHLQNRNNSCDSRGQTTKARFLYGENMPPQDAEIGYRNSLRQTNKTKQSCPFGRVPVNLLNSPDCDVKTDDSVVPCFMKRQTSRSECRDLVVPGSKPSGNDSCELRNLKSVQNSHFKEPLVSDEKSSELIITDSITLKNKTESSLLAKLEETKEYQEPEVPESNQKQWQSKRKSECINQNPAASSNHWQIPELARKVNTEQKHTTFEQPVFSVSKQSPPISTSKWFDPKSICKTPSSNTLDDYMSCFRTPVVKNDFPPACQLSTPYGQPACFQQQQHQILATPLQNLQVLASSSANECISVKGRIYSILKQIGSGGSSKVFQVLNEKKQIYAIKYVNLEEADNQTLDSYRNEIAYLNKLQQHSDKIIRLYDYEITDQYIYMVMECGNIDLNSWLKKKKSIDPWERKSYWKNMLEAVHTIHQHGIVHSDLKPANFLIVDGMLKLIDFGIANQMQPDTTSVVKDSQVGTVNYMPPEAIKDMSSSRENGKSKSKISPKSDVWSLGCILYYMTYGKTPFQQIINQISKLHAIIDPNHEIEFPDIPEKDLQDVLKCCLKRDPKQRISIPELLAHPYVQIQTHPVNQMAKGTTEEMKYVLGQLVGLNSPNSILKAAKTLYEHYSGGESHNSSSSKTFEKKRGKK
The assay can be described thus: Inhibition of human recombinant TTK at 15 nM in presence of ATP by radiometric assay relative to control.

What is called inhibition is how much of the control response was suppressed.

For the compound `O=C(N[C@@H](C1CC1)C(F)(F)F)c1cc(-c2cnn3cc(-c4ccc(F)cc4)cnc23)cs1`, in assay [1], the inhibition was found to be 15%. Besides, the fold change (FC) in assay [2] is 0.
With `CNC(=O)c1ccccc1Oc1nc(Nc2cc(OC)c(OC)c(OC)c2)ncc1Br`, the inhibition in assay [3] came out at 12%.
Take `CC(C)[C@H](NC(=O)c1cc(-c2cnn3cc(-c4ccc(OCCN5CCCCC5)cc4)cnc23)cs1)C(F)(F)F`: the inhibition in assay [4] amounted to 22%.
